The target in test [1] is Human CB1 receptor from Receptor Biology (hCB1) (Homo sapiens, UniProt P21554). In words: hCB1 receptor binding (3H-CP55,940 displacement).
Test [2] addresses T1, human CB2 receptor from BioSignal (hCB2) (Homo sapiens, UniProt P34972).
T1 construct: purchased BioSignal
As to the kind of experiment: hCB2 receptor binding (3H-CP55,940 displacement).

The mark [3] stands for this setting: hCB1 membranes, 3H-CP55,940 radioligand, Ki=IC50/(1+[rad]/Kd), read-out: hCB1 Ki.

Read-outs that look alike come from different tables or passages of the source.

Sequence of Human CB1 receptor from Receptor Biology (hCB1) (P21554 whole entry): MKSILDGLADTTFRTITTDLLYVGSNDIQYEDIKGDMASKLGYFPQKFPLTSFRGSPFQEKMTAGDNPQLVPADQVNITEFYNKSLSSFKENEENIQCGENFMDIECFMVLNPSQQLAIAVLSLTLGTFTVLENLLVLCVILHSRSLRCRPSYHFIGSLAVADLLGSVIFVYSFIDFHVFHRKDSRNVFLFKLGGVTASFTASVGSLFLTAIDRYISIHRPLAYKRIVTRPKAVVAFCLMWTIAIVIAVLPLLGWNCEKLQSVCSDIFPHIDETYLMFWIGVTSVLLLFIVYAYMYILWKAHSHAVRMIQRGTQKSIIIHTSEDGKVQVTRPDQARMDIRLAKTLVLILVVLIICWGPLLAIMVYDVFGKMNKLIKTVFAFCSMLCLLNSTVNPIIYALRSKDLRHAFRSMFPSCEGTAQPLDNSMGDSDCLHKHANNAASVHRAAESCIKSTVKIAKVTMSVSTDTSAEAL
T1 sequence (P34972 whole entry): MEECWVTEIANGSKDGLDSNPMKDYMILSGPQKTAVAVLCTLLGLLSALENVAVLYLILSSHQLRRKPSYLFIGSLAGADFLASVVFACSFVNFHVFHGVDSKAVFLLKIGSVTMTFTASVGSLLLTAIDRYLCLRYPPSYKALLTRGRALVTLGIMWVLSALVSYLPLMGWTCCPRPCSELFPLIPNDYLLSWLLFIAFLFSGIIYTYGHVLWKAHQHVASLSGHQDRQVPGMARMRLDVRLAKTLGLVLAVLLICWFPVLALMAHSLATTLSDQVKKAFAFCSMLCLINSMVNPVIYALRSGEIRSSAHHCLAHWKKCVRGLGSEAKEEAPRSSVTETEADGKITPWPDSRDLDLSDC

`CCOc1ccc(Cc2nc3cc(C(=O)N(CC(F)(F)F)CC(F)(F)F)ccc3n2CCC(C)C)cc1` [Compound 1]: the inhibition constant Ki (usually the dissociation constant of the complex between target and ligand, obtained from inhibition or displacement) in test [1] (setting [3]) came to 2800 nM; in test [2] (hCB2 Ki (nM)), 3.1 nM.

For `CCOc1ccc(Cc2nc3cc(C(=O)N(CC(F)(F)F)CC(F)(F)F)ccc3n2CC2CC2)cc1` [Compound 2], the results for the inhibition constant (Ki) in test [1] (hCB1 Ki (nM)) and in test [2] (read-out: hCB2 Ki) were 5080 nM and 5.6 nM, respectively. As for `CCOc1ccc(Cc2nc3cc(C(=O)N(CC(F)(F)F)CC(F)(F)F)ccc3n2CC2CCCCC2)cc1` [Compound 3], the Ki came to 84.8 nM in test [1] (hCB1 Ki (nM)) and 0.8 nM in test [2] (hCB2 Ki (nM)). Regarding `CCOc1ccc(Cc2nc3cc(C(=O)N(CC(F)(F)F)CC(F)(F)F)ccc3n2Cc2ccco2)cc1` [Compound 4], in test [1] (setting [3]), the Ki stood at 4690 nM. Turning to `CCOc1ccc(Cc2nc3cc(C(=O)N(CC(F)(F)F)CC(F)(F)F)ccc3n2Cc2ccco2)cc1` [Compound 7], the inhibition constant (Ki) in test [1] (setting [3]) is 5530 nM. With `CCOc1ccc(Cc2nc3cc(C(=O)N(CC(F)(F)F)CC(F)(F)F)ccc3n2Cc2ccncc2)cc1` [Compound 8], the inhibition constant (Ki) in test [1] (setting [3]) turned out to be 5350 nM; in test [2] (hCB2 Ki (nM)), 16.7 nM. As to `CCOc1ccc(C(C)c2nc3cc(C(=O)N(CC(F)(F)F)CC(F)(F)F)ccc3n2Cc2ccncc2)cc1` (centres unmarked) [Compound 9], the inhibitory constant (Ki) in test [1] (setting [3]) stood at 5570 nM; in test [2] (hCB2 membranes, 3H-CP55,940 radioligand, Ki=IC50/(1+[rad]/Kd), read-out: hCB2 Ki), 165 nM. As to `CCOc1ccc(Cc2nc3cc(C(=O)N(CC(F)(F)F)CC(F)(F)F)ccc3n2CC2CCOCC2)cc1` [Compound 13], the Ki in test [1] (hCB1 Ki (nM)) is 565 nM; in test [2] (hCB2 Ki (nM)), 5.4 nM. On to `CCOc1ccc(Cc2nc3cc(C(=O)N(CC(F)(F)F)CC(F)(F)F)ccc3n2C[C@H]2CCCO2)cc1` [Compound 14], for which the inhibition constant (Ki) in test [1] (hCB1 Ki (nM)) amounted to 5750 nM; in test [2] (hCB2 Ki (nM)), 14.8 nM. The like results for `CCOc1ccc(Cc2nc3cc(C(=O)N(CC(F)(F)F)CC(F)(F)F)ccc3n2C[C@@H]2CCCO2)cc1` [Compound 15] were, in that order, 5750 nM and 9.6 nM. For the compound `CCOc1ccc(Cc2nc3cc(C(=O)N(CC(F)(F)F)CC(F)(F)F)ccc3n2CC2CCCCO2)cc1` (centres unmarked) [Compound 16], the inhibition constant Ki in test [1] (setting [3]) was 1410 nM; in test [2] (hCB2 Ki (nM)), 3.3 nM. On to `CCOc1ccc(Cc2nc3cc(C(=O)N(CC(F)(F)F)CC(F)(F)F)ccc3n2CC2CCOCC2)nc1` [Compound 20], for which the inhibitory constant (Ki) in test [1] (hCB1 Ki (nM)) came out at 2730 nM; in test [2] (hCB2 Ki (nM)), 11.2 nM. Taken in the same sequence, the figures for `CCOc1ccc(Cc2nc3cc(C(=O)N(CC(F)(F)F)CC(F)(F)F)ccc3n2CCC(C)C)nc1` [Compound 21] were 5430 nM and 15.4 nM. `CCOc1ccc(Cc2nc3cc(C(=O)N(CC(F)(F)F)CC(F)(F)F)ccc3n2CC2CCC2)cc1` [Compound 25]: the Ki was found to be 1560 nM in test [1] (hCB1 Ki (nM)) and 2 nM in test [2] (hCB2 Ki (nM)). Turning to `CCOc1ccc(Cc2nc3cc(C(=O)N(CC(F)(F)F)CC(F)(F)F)ccc3n2CC2CCC2)nc1` [Compound 26], the results for the Ki in test [1] (hCB1 Ki (nM)) and in test [2] (hCB2 Ki (nM)) were 5530 nM and 6.6 nM, respectively. On to `CCOc1ccc(Cc2nc3cc(C(=O)N(CC(F)(F)F)CC(F)(F)F)ccc3n2CC2CCCC2)nc1` [Compound 27], for which the inhibitory constant (Ki) worked out at 1360 nM in test [1] (hCB1 Ki (nM)) and 3.2 nM in test [2] (hCB2 Ki (nM)). With `CCOc1ccc(Cc2nc3cc(C(=O)N(CC(F)(F)F)CC(F)(F)F)ccc3n2Cc2ccoc2)nc1` [Compound 29], the figures for the Ki in test [1] (setting [3]) and in test [2] (hCB2 Ki (nM)) were 5810 nM and 68.7 nM, respectively. For the compound `CCOc1ccc(Cc2nc3cc(C(=O)N(CC(F)(F)F)CC(F)(F)F)ccc3n2CC2CCCCC2)nc1` [Compound 30], the Ki in test [1] (hCB1 Ki (nM)) worked out at 455 nM; in test [2] (hCB2 Ki (nM)) it was 3.1 nM.

For `CC(C)Oc1ccc(Cc2nc3cc(C(=O)N(CC(F)(F)F)CC(F)(F)F)ccc3n2CC2CCCCC2)nc1` [Compound 32], the inhibition constant (Ki) in test [1] (setting [3]) stood at 142 nM; in test [2] (hCB2 Ki (nM)), 2.7 nM. The like results for `CCOc1ccc(Cc2nc3cc(C(=O)N(CC(F)(F)F)CC(F)(F)F)ccc3n2Cc2ccsc2)nc1` [Compound 36] were, in that order, 5750 nM and 14 nM.

The values are drawn from US7407968B2, “Compounds” (AstraZeneca AB, priority 2003, dated 2008).
